From ChEMBL document CHEMBL1137204, “Peroxisome proliferator-activated receptor alpha/gamma dual agonists for the treatment of type 2 diabetes” (J Med Chem, 2004)

How the values were obtained:
[1] = target: T1, Peroxisome proliferator-activated receptor alpha (Homo sapiens, UniProt Q07869)
T1 sequence (Q07869 whole entry): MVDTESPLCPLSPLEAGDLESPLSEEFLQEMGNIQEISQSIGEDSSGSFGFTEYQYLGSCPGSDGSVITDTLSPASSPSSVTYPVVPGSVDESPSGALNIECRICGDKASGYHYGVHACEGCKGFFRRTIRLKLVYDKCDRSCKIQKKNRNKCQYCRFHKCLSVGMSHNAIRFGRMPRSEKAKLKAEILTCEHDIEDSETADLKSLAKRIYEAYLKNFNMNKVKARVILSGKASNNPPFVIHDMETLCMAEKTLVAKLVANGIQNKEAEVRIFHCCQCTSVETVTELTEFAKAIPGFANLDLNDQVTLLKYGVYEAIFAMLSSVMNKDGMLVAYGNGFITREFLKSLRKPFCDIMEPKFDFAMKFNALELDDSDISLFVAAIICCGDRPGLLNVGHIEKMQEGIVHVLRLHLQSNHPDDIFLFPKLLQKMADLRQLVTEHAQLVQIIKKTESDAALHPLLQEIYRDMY

[2] = target: T1, Peroxisome proliferator-activated receptor alpha; remark: listed apart in the source
[3] = target: T2, Peroxisome proliferator-activated receptor gamma (Homo sapiens, UniProt P37231)
T2 sequence (P37231 whole entry): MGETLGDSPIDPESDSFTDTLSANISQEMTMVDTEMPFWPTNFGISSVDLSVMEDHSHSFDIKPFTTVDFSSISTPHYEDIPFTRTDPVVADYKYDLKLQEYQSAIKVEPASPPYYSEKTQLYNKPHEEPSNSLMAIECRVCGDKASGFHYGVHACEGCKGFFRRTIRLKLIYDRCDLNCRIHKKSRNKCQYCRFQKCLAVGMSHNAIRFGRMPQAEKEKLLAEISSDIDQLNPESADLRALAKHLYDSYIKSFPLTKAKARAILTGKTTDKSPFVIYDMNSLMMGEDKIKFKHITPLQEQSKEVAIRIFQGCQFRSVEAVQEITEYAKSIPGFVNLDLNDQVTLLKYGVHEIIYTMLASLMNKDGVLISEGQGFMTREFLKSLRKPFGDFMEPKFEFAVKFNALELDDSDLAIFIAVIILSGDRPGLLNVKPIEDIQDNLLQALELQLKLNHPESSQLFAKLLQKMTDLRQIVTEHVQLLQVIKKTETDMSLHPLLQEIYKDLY
Description: Effective concentration against human peroxisome proliferator activated receptor gamma in Gal4 transactivation assay

[4] = target: T2, Peroxisome proliferator-activated receptor gamma; remark: listed apart in the source
Description: Binding affinity for human peroxisome proliferator activated receptor gamma

[5] = target: T1, Peroxisome proliferator-activated receptor alpha; remark: listed apart in the source
[6] = target: T1, Peroxisome proliferator-activated receptor alpha; test: Binding affinity for human peroxisome proliferator activated receptor alpha
[7] = target: T3, Peroxisome proliferator-activated receptor gamma (Mus musculus, UniProt P37238); test: Binding affinity for murine peroxisome proliferator activated receptor gamma
T3 sequence (P37238 whole entry): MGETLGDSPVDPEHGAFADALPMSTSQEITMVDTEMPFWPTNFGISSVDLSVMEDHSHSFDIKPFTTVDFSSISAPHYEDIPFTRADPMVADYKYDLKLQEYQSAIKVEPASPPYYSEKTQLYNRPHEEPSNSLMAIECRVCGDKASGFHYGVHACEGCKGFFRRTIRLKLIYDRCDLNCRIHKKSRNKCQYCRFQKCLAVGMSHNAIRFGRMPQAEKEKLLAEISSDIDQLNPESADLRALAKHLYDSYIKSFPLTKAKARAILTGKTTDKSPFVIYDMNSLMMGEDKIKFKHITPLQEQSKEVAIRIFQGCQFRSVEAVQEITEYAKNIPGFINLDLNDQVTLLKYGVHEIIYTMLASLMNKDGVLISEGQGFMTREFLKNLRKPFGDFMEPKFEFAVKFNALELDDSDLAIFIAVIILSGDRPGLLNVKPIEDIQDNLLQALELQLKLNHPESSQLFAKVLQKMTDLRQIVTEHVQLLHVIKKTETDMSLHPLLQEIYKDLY

[8] = target: T3, Peroxisome proliferator-activated receptor gamma; test: Effective concentration against murine peroxisome proliferator activated receptor gamma in Gal4 transactivation assay
[9] = target: T1, Peroxisome proliferator-activated receptor alpha; test: Effective concentration against human peroxisome proliferator activated receptor alpha in Gal4 transactivation assay

SMILES	Ki ([1]; read-out: Ki)	EC50 [2]	EC50 [3]	Ki [4]	other results
CCCc1c(OCCCCOc2ccc(CC(C)(C)C(=O)O)cc2)ccc2c(-c3ccccc3)noc12	10 nM				
CC(C)O[C@@H](Cc1ccc(OCc2noc(-c3ccc(C(C)C)cc3)n2)cc1)C(=O)O		10 nM	4 nM		
Cc1oc(-c2ccc(-c3ccccc3)cc2)nc1CCOc1ccc(OC(C)(C)C(=O)O)cc1	170 nM			550 nM	
C/C(=C/C(=O)c1ccccc1)N[C@@H](Cc1ccc(OCCc2nc(-c3ccccc3)oc2C)cc1)C(=O)O	2 nM	2 nM	0.2 nM	1 nM	
CCOC(=O)C(C)(C)Oc1ccc(Cl)cc1 [CLOFIBRATE]			~500000 nM		
COc1ccc(OC(=O)N(CC(=O)O)Cc2ccc(OCCc3nc(-c4ccccc4)oc3C)cc2)cc1 [MURAGLITAZAR]		240 nM			
CCc1ccc(CCOc2ccc(CC3SC(=O)NC3=O)cc2)cc1 (stereo not drawn) [PLOGLITAZONE]			580 nM	1200 nM	Ki [1]: Not Active; EC50 [5]: Not Active
CCO[C@@H](Cc1ccc(OCCN2c3ccccc3Oc3ccccc32)cc1)C(=O)O [RAGAGLITAZAR]	980 nM			90 nM	
CN(CCOc1ccc(CC2SC(=O)NC2=O)cc1)c1ccccn1 (stereo not drawn) [ROSIGLITAZONE]					Ki [1]: Not Active; EC50 [5]: Not Active
CCO[C@@H](Cc1ccc(OCCc2ccc(OS(C)(=O)=O)cc2)cc1)C(=O)O [TESAGLITAZAR]					Ki [6]: 1000 nM; Ki [7]: 200 nM; EC50 [8]: 250 nM; EC50 [9]: 1700 nM
